Experimental data reported in PubChem BioAssay (NCI).
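Five concentrations, 48 hours, 96-well plates. At the GI50, growth is halved. TGI is the concentration that stops growth completely.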

What was measured:
Assay in all cases: NCI-60 cell line screen, 48 h
[1] = system: CCRF-CEM leukemia
[2] = system: U251 CNS
[3] = system: UACC-62 melanoma
[4] = system: K-562 leukemia
[5] = system: KM12 colon
[6] = system: SK-MEL-28 melanoma
[7] = system: ACHN renal
[8] = system: HOP-92 NSCLC
[9] = system: HT29 colon
[10] = system: MDA-MB-231 breast

SMILES | TGI [1] [µM] | TGI [2] [µM] | TGI [3] [µM] | TGI [4] [µM] | TGI [5] [µM] | TGI [6] [µM] | TGI [7] [µM] | TGI [8] [µM] | TGI [9] [µM] | GI50 [1] [µM] | GI50 [2] [µM] | GI50 [3] [µM] | GI50 [5] [µM] | GI50 [10] [µM] | TGI [10] [µM] | GI50 [6] [µM] | GI50 [7] [µM] | GI50 [8] [µM] | GI50 [4] [µM]
C[Si](C)(C)OC1(C#N)C2C3CC4C2C(=O)C2C4C3C21 (stereo not given) | > 100 | > 100 | > 100 | > 100 | > 100 | > 100 | > 100 | – | – | – | – | – | – | – | – | – | – | – | –
Cc1cc2c(C)n(Cc3ccc(Cl)cc3Cl)nc2c(C#N)c1C | > 100 | > 61.9 | > 100 | > 100 | > 100 | > 100 | > 100 | 36.9 | > 100 | – | – | – | – | – | – | – | – | – | –
Nn1c(-c2ccccc2Cl)nc2ccccc2c1=O | > 100 | > 100 | > 100 | > 100 | > 100 | > 100 | > 100 | > 100 | > 100 | – | – | – | – | – | – | – | – | – | –
O=C1C(=O)N(c2ccc(Cl)c(Cl)c2)C(=O)C(=O)C1c1nc2ccccc2s1 | > 100 | > 100 | > 100 | – | – | > 100 | > 100 | > 100 | > 100 | – | – | – | – | – | – | – | – | – | –
CCCCCCc1cc(C(=O)Nc2cccc(C(F)(F)F)c2)nc(N)n1 | > 100 | > 100 | > 100 | > 100 | > 100 | > 100 | > 100 | > 100 | > 100 | – | – | – | – | – | – | – | – | – | –
CCCCCCCCCCCC(=O)OCCOCCOCCOCCOCCOCc1ccc(OC)cc1 | > 100 | > 100 | > 100 | > 100 | > 100 | > 100 | > 100 | > 100 | > 100 | – | – | – | – | – | – | – | – | – | –
c1ccc(SC(CCCCC(Sc2ccccc2)Sc2ccccc2)Sc2ccccc2)cc1 | > 100 | > 100 | > 100 | > 100 | > 100 | > 100 | > 100 | > 100 | – | – | – | – | – | – | – | – | – | – | –
Cc1c(C#N)c(=O)[nH]c(=O)n1CCN1CCN(C(=O)NCCCCCCNC(=O)N2CCN(CCn3c(C)c(C#N)c(=O)[nH]c3=O)CC2)CC1 | > 100 | > 100 | > 100 | > 100 | – | > 100 | > 100 | > 100 | > 100 | – | – | – | – | – | – | – | – | – | –
O=S(=O)(c1ccccc1)C(CN1CCCCC1)S(=O)(=O)c1ccccc1 | > 100 | > 100 | > 100 | > 100 | > 100 | > 100 | > 100 | > 100 | > 100 | – | – | – | – | – | – | – | – | – | –
CCN1CCC(CCOC)(CN2c3ccccc3Sc3ccc(Cl)cc32)C1 (stereo not given) | > 100 | 3.64 | 3.81 | – | 3.43 | 3.62 | 3.44 | – | – | 3.57 | 1.89 | 2.05 | 1.79 | 1.86 | 3.67 | 1.97 | 1.78 | – | –
c1ccc2c(c1)c(NCCCCN1CCCCC1)cc1c3ccccc3c(NCCCCN3CCCCC3)cc21 | > 100 | 29.8 | 35.4 | > 100 | 8.98 | – | 30.5 | 52.7 | – | 13.4 | 7.67 | 19.5 | 2.97 | 17.2 | 35.7 | – | 15.5 | 20.4 | 7.85
